# Reference: PMC11280343, “Rubus urticifolius Compounds with Antioxidant Activity, and Inhibition Potential against Tyrosinase, Melanin, Hyaluronidase, Elastase, and Collagenase” (Pharmaceuticals, 2024)
# Where two headings read alike, the source gives them in different places.
# Columns and labels:
# [1] = system: collagenase; assay: Collagenase inhibitory assay; type: biochemical; conditions: for Collagenase Inhibition (%): inhibition percentage 'at an IC50', concentration not otherwise stated; for IC50: read-out: Anti-Collagenase IC50
# Experimental: A fixed weight of 1 mg of azo dye-impregnated collagen was measured in the test tubes. Subsequently, 800 μL of 0.1 M Tris-HCl (pH 7) and 100 μL of the samples at the same concentrations used as in the viability assay were added to each test tube. Next, 100 μL of collagenase (200 units/mL) was immediately mixed into the mixture and the tubes were incubated at 43 °C for 1 h. After incubation, the test tubes were centrifuged at 3000 rpm for 10 min. The supernatant from each tube was transferred into 96-well plates and the absorbance of each supernatant was measured at 550 nm using a microplate reader.
# [2] = NR viability assay, HEK001; type: cell-based, Homo sapiens; conditions: human
# Experimental: (§1) The HEK001 (Homo sapiens cutaneous keratinocyte, CCL-2404), WS1 (Homo sapiens cutaneous fibroblast, CRL-1502), HMCB (Homo sapiens cutaneous melanoma, CRL-9607), and THP-1 (Homo sapiens peripheral blood monocyte, TIB-202) cell lines used in this study were obtained from the American Type Culture Collection (ATCC, Manassas, VA, USA). Cultivated in a Roswell Park Memorial Institute (RPMI) 1640 medium (RPMI 1640 Merck, Cat. No. R7755, New York, NY, USA) supplemented with 2 mM L-glutamine (≥99% Merck, Cat. No. 56-85-9), 10% fetal bovine serum (FBS Merck, Cat. No. TMS-016, St. Louis, MO, USA), and 10,000 units of penicillin and 10 mg streptomycin/mL (Merck, Cat. No. P4333, St. Louis, MO, USA) in culture flasks, the cells were maintained in an incubator under normoxic conditions (20–21% O2) and a humidified atmosphere (5% CO2 at 37 °C).
# (§2) Mother solutions of samples (extracts, fractions, and compounds) were prepared at a concentration of […] using dimethyl sulfoxide (DMSO ≥ 99.9% Merck, Cat. No. 67-68-5, St. Louis, MO, USA) as the solvent. From these mother solutions, dilutions were prepared at concentrations ranging from 100 to 0.20 μg/mL or μM in culture medium containing 0.5% DMSO. Additionally, a negative control group consisting solely of culture medium with 0.5% DMSO was included to assess its potential cytotoxic effect on the cells.
# (§3) Cell viability was evaluated using a colorimetric assay in 96-well plates, employing 3-amino-7-dimethylamino-2-methylphenazine hydrochloride salt reagent (NR, Merck, Cat. No. 553-24-2, St. Louis, MO, USA).
# (§4) HEK001, WS1, HMCB, and THP-1 cell lines were cultured in 96-well plates at 37 °C with 5% CO2 until > 90% confluency was achieved (1 × 10^6 cells/well). Subsequently, the cultures were treated with sample dilutions (100–0.20 μg/mL or μM) for 72 h at 37 °C with 5% CO2 in phenol red-free RPMI. The supernatant was then discarded and the cells were washed with phosphate-buffered saline (PBS) before being incubated with […] NR (50 μg/mL; 173 μM) for 3 h at 37 °C with 5% CO2. NR labelling was performed after DMSO treatment. After incubation, the labelled sample dilutions were rapidly washed with a fixative solution composed of 1% calcium chloride (CaCl2 Merck, Cat. No. 10043-52-4, St. Louis, MO, USA) and 0.5% formaldehyde solution (≥36.0% in H2O Merck, Cat. No. 50-00-0, St. Louis, MO, USA), then diluted with 100 μL of the NR extraction solution. Finally, the plates were read at 540 nm using a microplate reader (Anthos 2020, version 2.0.5, Biochrom Ltd., Cambridge, UK).
# [3] = NR viability assay, HMCB; type: cell-based, Homo sapiens; conditions: human
# Experimental: as §1, §2, §3, §4
# [4] = system: Nrf2; assay: Nrf2 activation assay, HMCB; type: cell-based; conditions: Homo sapiens, 72 h, read-out: Activation of Nrf2 production EC50
# Experimental: (§5) To determine the antioxidant response of the samples (at the same concentration as in the viability assay), Nrf2 activation assay was used, following the protocol carried out by Apaza Ticona et al.. Cells were cultured in 96-well plates (1 × 10^6 cells/well). […] Absorbance was measured at 540 nm using a microplate reader.
# [5] = system: NF-κB; assay: NF-κB inhibition assay (LPS-stimulated), HMCB; type: cell-based; conditions: Homo sapiens, 72 h, read-out: NF-κB Inhibition at 72 h IC50 ± SEM
# Experimental: as §5, with “anti-inflammatory activity” for “antioxidant response”, “NF-κB inhibition” for “Nrf2 activation”, “450” for “540”
# [6] = NR viability assay, WS1; type: cell-based, Homo sapiens; conditions: human
# Experimental: as §1, §2, §3, §4
# [7] = system: Nrf2; assay: Nrf2 activation assay, WS1; type: cell-based; conditions: Homo sapiens, read-out: Activation of Nrf2 production EC50
# Experimental: as §5
# [8] = target: T1, elastase from porcine pancreas (Sus scrofa, UniProt P00772); assay: Elastase-inhibitory effect assay; type: biochemical; conditions: for Elastase Inhibition (%): inhibition percentage 'at an IC50', concentration not otherwise stated
# T1 construct: elastase from porcine pancreas (7.5 units/mL); from tissue; host or cells: porcine pancreas
# Experimental: The elastase-inhibitory effect was evaluated, implementing the protocol adapted from Tu and Tawata.
# A mixture containing N-succinyl-Ala-Ala-Ala-p-nitroanilide (AAAPVN, Merck, Cat. No. 52299-14-6, St. Louis, MO, USA) elastase substrate in 0.1232 M Tris-HCl buffer solution (pH 8) was prepared to achieve a concentration of 1.015 mM. This elastase substrate was combined with 10 μL of the test samples at the same concentrations used as in the viability assay in 96-well plates and pre-incubated at room temperature (25 ± 5 °C) for 10 min. Subsequently, the reaction was initiated by adding 10 μL of elastase from porcine pancreas (7.5 units/mL) in Tris buffer solution to the pre-incubated mixtures. Absorbance was then measured at 410 nm using a microplate reader.
# [9] = system: NF-κB; assay: NF-κB inhibition assay (LPS-stimulated), HEK001; type: cell-based; conditions: Homo sapiens, read-out: NF-κB Inhibition at 72 h IC50 ± SEM
# Experimental: as §5, with “anti-inflammatory activity” for “antioxidant response”, “NF-κB inhibition” for “Nrf2 activation”, “450” for “540”
# [10] = system: Nrf2; assay: Nrf2 activation assay, HEK001; type: cell-based
# Experimental: as §5
# [11] = Homo sapiens, HEK001, 72 h; read-out: Activation of Nrf2 production EC50
# T1 sequence (P00772 27-266): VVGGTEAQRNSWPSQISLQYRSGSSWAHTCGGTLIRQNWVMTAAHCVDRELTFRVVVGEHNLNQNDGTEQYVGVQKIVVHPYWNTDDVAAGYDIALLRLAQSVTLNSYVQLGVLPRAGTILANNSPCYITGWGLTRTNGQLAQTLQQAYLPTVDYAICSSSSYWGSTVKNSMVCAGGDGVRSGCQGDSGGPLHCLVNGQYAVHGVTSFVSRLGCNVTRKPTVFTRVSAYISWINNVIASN
Compound,Collagenase Inhibition (%) [1] [%],IC50 [1] [µM],EC50 [4] [µM],IC50 ([5]; LPS-stimulated) [µM],"EC50 ([7]; WS1, 72 h) [µM]",Elastase Inhibition (%) [8] [%],IC50 ([8]; read-out: Anti-Elastase IC50) [µM],"IC50 ([9]; HEK001, LPS-stimulated, 72 h) [µM]","EC50 [10, 11] [µM]",further results
"CNC(=O)c1ccccc1NC(=O)/C=C/c1ccc(OC)c(OC)c1 [Compound 1, (E)-2-(3-(3,4-dimethoxyphenyl)acrylamido)-N-methylbenzamide]",62.24 ± 1.42,76.6 ± 1.31,0.385,9.82 ± 0.65,0.268,60.76 ± 1.44,80.1 ± 1.92,11.2 ± 0.23,0.202,"CC50 at 72 h ([2]; HEK001 cells (cutaneous keratinocytes), HEK001, NR assay, 72 h, read-out: Viability CC50): 76.2 µM; CC50 at 72 h ([3]; HMCB cells (cutaneous melanoma), HMCB, NR assay, 72 h, read-out: Viability CC50): 69.8 µM; CC50 at 72 h ([6]; WS1 cells (cutaneous fibroblasts), WS1, NR assay, 72 h, read-out: Viability CC50): 73 µM"
"N#C/C(=C\c1ccc(O)cc1)C(=O)O [Compound 3, (E)-2-cyano-3-(4-hydroxyphenyl)acrylic acid]",7.73 ± 1.21,187 ± 2.61,1.02,–,–,6.19 ± 1.44,–,–,–,"CC50 at 72 h ([2]; HEK001, NR assay, 72 h, read-out: Viability CC50): 130 µM; CC50 at 72 h ([3]; HMCB, NR assay, 72 h, read-out: Viability CC50): 98.4 µM; IC50 [5]: 51.42 ± 0.13 µM; CC50 at 72 h ([6]; WS1, NR assay, 72 h, read-out: Viability CC50): 107 µM; EC50 ([7]; 72 h): 0.983 µM; IC50 [8]: 192 ± 3.78 µM; IC50 ([9]; HEK001, 72 h): 55.97 ± 0.32 µM; EC50 ([10]; Homo sapiens, HEK001, 72 h, read-out: Activation of Nrf2 production EC50): 0.951 µM"
"O=C(O)c1cc(O)c2ccccc2n1 [Compound 2, 4-hydroxyquinoline-2-carboxylic acid]",24.87 ± 1.34,152 ± 3.73,0.506,30.7 ± 0.98,0.361,17.68 ± 1.46,168 ± 3.09,35.42 ± 0.12,0.32,CC50 at 72 h [2]: 95 µM; CC50 at 72 h [3]: 87.7 µM; CC50 at 72 h [6]: 89.9 µM
